Measured values reported in ChEMBL document CHEMBL1201862, “PubChem BioAssay data set” (2004).
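Test compounds were applied to cells in 96-well plates for 48 hours at 5 doses. GI50 = concentration required for 50% inhibition of growth.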 Active and inactive are the calls of the source. No stated cut-off is given here; in the data, active = GI50 up to about 1.1 µM and inactive = higher.

Tests used:
Test in all cases: NCI anticancer screen, dose series, 48 h
CCRF-CEM = test system: CCRF-CEM
SF-539 = test system: SF-539
HCT-116 = test system: HCT-116
HT-29 = test system: HT-29
OVCAR-8 = test system: OVCAR-8
SNB-19 = test system: SNB-19
OVCAR-3 = test system: OVCAR-3
SK-MEL-5 = test system: SK-MEL-5
RPMI-8226 = test system: RPMI-8226
MOLT-4 = test system: MOLT-4
BT-549 = test system: BT-549
OVCAR-5 = test system: OVCAR-5
EKVX = test system: EKVX
K562 = test system: K562
MDA-MB-435 = test system: MDA-MB-435
786-0 = test system: 786-0
KM12 = test system: KM12
Malme-3M = test system: Malme-3M
SNB-75 = test system: SNB-75
ACHN = test system: ACHN
IGROV-1 = test system: IGROV-1
NCI-H226 = test system: NCI-H226
NCI-H460 = test system: NCI-H460
Hs-578T = test system: Hs-578T
SN12C = test system: SN12C
HOP-92 = test system: HOP-92
SW-620 = test system: SW-620
SF-295 = test system: SF-295
UACC-257 = test system: UACC-257
U-251 = test system: U-251
HCC 2998 = test system: HCC 2998
SK-OV-3 = test system: SK-OV-3
UO-31 = test system: UO-31
T47D = test system: T47D
M14 = test system: M14
NCI/ADR-RES = test system: NCI/ADR-RES
MCF7 = test system: MCF7
HL-60 = test system: HL-60
NCI-H23 = test system: NCI-H23
A549 = test system: A549
SR = test system: SR
HOP-62 = test system: HOP-62
PC-3 = test system: PC-3
UACC-62 = test system: UACC-62
HCT-15 = test system: HCT-15
MDA-N = test system: MDA-N
SF-268 = test system: SF-268
DU-145 = test system: DU-145
SK-MEL-2 = test system: SK-MEL-2
COLO 205 = test system: COLO 205
NCI-H522 = test system: NCI-H522
A498 = test system: A498
OVCAR-4 = test system: OVCAR-4
LOX IMVI = test system: LOX IMVI
CAKI-1 = test system: CAKI-1
RXF 393 = test system: RXF 393
SK-MEL-28 = test system: SK-MEL-28
TK-10 = test system: TK-10

For `COc1cc(COC(=O)N2CSCC2C(=O)O)c([N+](=O)[O-])cc1OC` (stereo unspecified), the GI50 (CCRF-CEM) was > 100 µM (inactive), the GI50 (SF-539) was > 100 µM (inactive) and the GI50 (HCT-116) was > 100 µM (inactive). The GI50 (HT-29) was > 100 µM (inactive), the GI50 (OVCAR-8) was > 100 µM (inactive) and the GI50 (SNB-19) was > 100 µM (inactive). The GI50 (OVCAR-3) was > 100 µM (inactive), the GI50 (SK-MEL-5) was > 100 µM (inactive) and the GI50 (RPMI-8226) was > 100 µM (inactive). The GI50 (MOLT-4) was > 100 µM (inactive), the GI50 (BT-549) was > 100 µM (inactive) and the GI50 (OVCAR-5) was > 100 µM (inactive). The GI50 (EKVX) was > 100 µM (inactive), the GI50 (K562) was > 100 µM (inactive) and the GI50 (MDA-MB-435) was > 100 µM (inactive). The GI50 (786-0) was > 100 µM (inactive), the GI50 (KM12) was > 100 µM (inactive) and the GI50 (Malme-3M) was > 100 µM (inactive). For the same molecule, the GI50 (SNB-75) was > 100 µM (inactive), the GI50 (ACHN) was > 100 µM (inactive) and the GI50 (IGROV-1) was > 100 µM (inactive). The GI50 (NCI-H226) was > 100 µM (inactive), the GI50 (NCI-H460) was > 100 µM (inactive) and the GI50 (Hs-578T) was > 100 µM (inactive). For the same molecule, the GI50 (SN12C) was > 100 µM (inactive), the GI50 (HOP-92) was > 100 µM (inactive) and the GI50 (SW-620) was > 100 µM (inactive). The GI50 (SF-295) was > 100 µM (inactive), the GI50 (UACC-257) was > 100 µM (inactive) and the GI50 (U-251) was > 100 µM (inactive). The GI50 (HCC 2998) was > 100 µM (inactive), the GI50 (SK-OV-3) was > 100 µM (inactive) and the GI50 (UO-31) was > 100 µM (inactive). For the same molecule, the GI50 (T47D) was > 100 µM (inactive), the GI50 (M14) was > 100 µM (inactive) and the GI50 (NCI/ADR-RES) was > 100 µM (inactive). For the same molecule, the GI50 (MCF7) was > 100 µM (inactive), the GI50 (HL-60) was > 100 µM (inactive) and the GI50 (NCI-H23) was > 100 µM (inactive). The GI50 (A549) was > 100 µM (inactive), the GI50 (SR) was > 100 µM (inactive) and the GI50 (HOP-62) was > 100 µM (inactive). For the same molecule, the GI50 (PC-3) was > 100 µM (inactive), the GI50 (UACC-62) was > 100 µM (inactive) and the GI50 (HCT-15) was > 100 µM. For the same molecule, the GI50 (MDA-N) was > 100 µM (inactive), the GI50 (SF-268) was > 100 µM (inactive) and the GI50 (DU-145) was > 100 µM (inactive).
In the case of `O=C1c2ccccc2-c2c1c(-c1ccccc1)c1n2C2(C(=O)c3ccccc3C2=O)C2C(=O)N(c3ccccc3)C(=O)C12` (stereo unspecified), the GI50 (CCRF-CEM) is reported as 26.1 µM (inactive), the GI50 (SF-539) is reported as 15.4 µM (inactive) and the GI50 (HCT-116) is reported as 17.9 µM (inactive). The GI50 (HT-29) was 17.7 µM (inactive), the GI50 (OVCAR-8) was 32.2 µM (inactive) and the GI50 (SNB-19) was 27.7 µM (inactive). The GI50 (OVCAR-3) was 24.3 µM (inactive), the GI50 (SK-MEL-5) was 18.2 µM (inactive) and the GI50 (SK-MEL-2) was 22.6 µM (inactive). For the same molecule, the GI50 (MOLT-4) was 40.6 µM (inactive), the GI50 (BT-549) was 17.5 µM (inactive) and the GI50 (OVCAR-5) was 17.4 µM (inactive). For the same molecule, the GI50 (EKVX) was 24 µM (inactive), the GI50 (MDA-MB-435) was 19.8 µM (inactive) and the GI50 (786-0) was 23.4 µM (inactive). The GI50 (COLO 205) was 18.5 µM (inactive), the GI50 (KM12) was 19.8 µM (inactive) and the GI50 (Malme-3M) was 23.9 µM (inactive). For the same molecule, the GI50 (SNB-75) was 17.3 µM (inactive), the GI50 (ACHN) was 31.9 µM (inactive) and the GI50 (IGROV-1) was 32.3 µM (inactive). The GI50 (NCI-H522) was 12.9 µM (inactive), the GI50 (NCI-H226) was 19.3 µM (inactive) and the GI50 (A498) was 28.1 µM (inactive). For the same molecule, the GI50 (NCI-H460) was 12 µM (inactive), the GI50 (Hs-578T) was 17.8 µM (inactive) and the GI50 (SN12C) was 19.9 µM (inactive). For the same molecule, the GI50 (HOP-92) was 23.8 µM (inactive), the GI50 (SW-620) was 31.5 µM (inactive) and the GI50 (SF-295) was 34.4 µM (inactive). For the same molecule, the GI50 (UACC-257) was 30.6 µM (inactive), the GI50 (U-251) was 35.9 µM (inactive) and the GI50 (SK-OV-3) was 41.9 µM (inactive). For the same molecule, the GI50 (UO-31) was 28.4 µM (inactive), the GI50 (T47D) was 16.9 µM (inactive) and the GI50 (M14) was 34.1 µM (inactive). The GI50 (OVCAR-4) was 31.4 µM (inactive), the GI50 (LOX IMVI) was 17 µM (inactive) and the GI50 (NCI/ADR-RES) was 74.6 µM (inactive). The GI50 (MCF7) was 24.8 µM (inactive), the GI50 (CAKI-1) was 34.4 µM (inactive) and the GI50 (RXF 393) was 17.6 µM (inactive). For the same molecule, the GI50 (NCI-H23) was 17.4 µM (inactive), the GI50 (A549) was 85.1 µM (inactive) and the GI50 (SK-MEL-28) was 28.9 µM (inactive). For the same molecule, the GI50 (HOP-62) was 26.3 µM (inactive), the GI50 (TK-10) was 28.1 µM (inactive) and the GI50 (PC-3) was 26.6 µM (inactive). The GI50 (UACC-62) was 21.6 µM (inactive), the GI50 (HCT-15) was 16.4 µM and the GI50 (MDA-N) was 24.7 µM (inactive). The GI50 (SF-268) was 21.1 µM (inactive) and the GI50 (DU-145) was 28.5 µM (inactive).
